This is an account of results in patent publication US20230158066A1, “ENCAPSULATED CARBONYL IRON SALT COMPOSITIONS AND PROCESS THEREOF” (priority 2020, published 2023).

The series is described as follows: Particle density (bulk density), USP <616> method 1. The format is physicochemical. The note with it: untapped powder, W/V0. The source says:
Particle density or Bulk density is the density of the solids (determined by the composition), which determines the particle density, together with the amount of occluded air. It's the ratio of mass to volume (including the inter-particulate void volume) of an untapped powder sample. It depends on both the density of powder particle and arrangement of the particles. The bulk density influenced by preparation method, treatment and storage of the samples.
The method used as per the reference of USP general chapter <616> method 1. • 1. Pass a quantity of material sufficient to complete the test through sieve greater than equal to 1 mm, if necessary to break up agglomerates that may formed. • 2. Fill the test sample approx. 150 g with 0.1% accuracy (W) in dry gradual 250 mL cylinder (readable to 2 mL) carefully. • 3. Read the unsettled apparent volume (V0) to the nearest graduated unit. • 4. Calculate the particle density by following formula;
Take Ferrous sulfate: the Particle density turned out to be 1.26 g/mL.

As to `O=C([O-])/C=C/C(=O)[O-].[Fe+2]` [Ferrous fumarate], the Particle density amounted to 2.14 g/mL.

Regarding Ferrous Ascorbate, the Particle density is listed as 0.75 g/mL.
